According to US4348410A, “Cyclohexane carboxylic acid derivatives” (Nippon Chemiphar Co., Ltd., priority 1979, dated 1982):
Counter-ions that a name gives are not always drawn. Blank lines part the entries; values can stand above or below the compound they belong to.

Key:
[1] = system: acetic acid ulcers; experiment: Acetic acid ulcers; format: in vivo, Male Sprague-Dawley strain rats; details: for Ulcer Grade 1 (number of rats): ulcer area 0-10 mm^2; for Ulcer Grade 2 (number of rats): ulcer area 11-20 mm^2; for Ulcer Grade 3 (number of rats): ulcer area 21-30 mm^2; for Ulcer Grade 4 (number of rats): ulcer area 31-40 mm^2; for Ulcer Grade 5 (number of rats): ulcer area >40 mm^2
Procedure: Male Sprague-Dawley strain rats, weighing about 200 g were used. Under ether anesthesia 10% acetic acid solution (0.05 ml) was injected carefully between the serous membrane and the muscle near the pylorus, and the abdomen was closed. Thereafter, the animals were maintained under conditions and administered 1 ml/100 g of each test drug dissolved or suspended in 0.5% carboxymethylcellulose solution p.o. daily×10 starting from the next day of the operation. On the 11th day, the rats were sacrificed under ether anesthesia, and the stomachs were removed. The area of the ulcer was measured and graded into 5 degrees as an ulcer index according to the following method: […]

[2] = system: Shay ulcers; experiment: Shay ulcers (pylorus ligation); format: in vivo, Male Sprague-Dawley strain rats; details: 12.5 mg/kg i.p.
Procedure: The rats were sacrificed 18 hours later by an overdose of ether and the stomach removed. The stomach was incised along the greater curvature and the surface area of each lesion in forestomach was measured by the naked eye. […] 4=many ulcers of marked size 5=perforated ulcer The test drugs were given intraperitoneally, immediately after pylorus ligation.

[3] = system: gastric secretion; experiment: Influence to the gastric secretion (pylorus ligation); format: in vivo, Male Sprague-Dawley strain rats; details: 12.5 mg/kg i.p.
Procedure: Male Sprague-Dawley strain rats, weighing 160-180 g were deprived of food but allowed free access to water for 20 hours prior to experiment. […] The test drug was given intraperitoneally immediately after pylorus ligation. The rats were sacrificed 3, 6 and 12 hours later and the stomachs removed. The gastric juice was collected and analyzed for volume. Then the gastric juice was centrifuged at 1300 g for 10 minutes at room temperature to give the supernatant. The total acidity and peptic activity of the supernatant were determined. Total acidity was determined by titrating with 0.01 N NaOH. […] Total acidity is shown as the titration volume (ml) and peptic activity is shown as the corresponding weight (mg) to crystal pepsin.

[4] = biological target: thrombin (Bos taurus, UniProt P00735); experiment: Inhibitory effects on thrombin (hydrolysis of p-tosylarginine methyl ester); format: biochemical; details: 0.1 mM; read-out: inhibited hydrolytic activity by thrombin
Procedure: The compounds of the formula (I) have excellent inhibitory effects on protease. The inhibitory effects were determined by the following methods:
Inhibitory effects of the compounds on thrombin were determined according to the method described by M. Muramatsu et al (The Journal of Biochemistry, Volume 65 (1), 17 (1969)). In particular, inhibitory effects of the compounds on hydrolysis of p-tosylarginine methyl ester by thrombin were examined (incubated at 37° C. for 10 minutes).

[5] = biological target: T1, trypsin (Bos taurus, UniProt P00760); experiment: Inhibitory effects on trypsin (hydrolysis of p-tosylarginine methyl ester); format: biochemical; details: 0.1 mM; read-out: inhibited hydrolytic activity by trypsin
T1 sequence (P00760 24-246): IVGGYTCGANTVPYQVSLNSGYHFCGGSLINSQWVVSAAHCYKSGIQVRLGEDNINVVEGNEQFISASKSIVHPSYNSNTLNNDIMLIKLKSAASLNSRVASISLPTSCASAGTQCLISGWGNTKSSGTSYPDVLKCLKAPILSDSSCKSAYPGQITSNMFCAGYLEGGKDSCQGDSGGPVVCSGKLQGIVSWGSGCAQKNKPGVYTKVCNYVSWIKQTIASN
Procedure: In particular, inhibitory effects of the compounds on hydrolysis of p-tosylarginine methyl ester by trypsin were examined (incubated at 37° C. for 10 minutes).

[6] = biological target: urokinase (Homo sapiens, UniProt P00749); experiment: Inhibitory effects on urokinase (hydrolysis of N-acetylglycyl lysine methyl ester); format: biochemical; details: 0.1 mM; read-out: inhibited hydrolytic activity by urokinase
Procedure: The compounds of the formula (I) have excellent inhibitory effects on protease. The inhibitory effects were determined by the following methods: Inhibitory effects of the compounds on urokinase were determined according to the method described by A. J. Joeson et al (Throm. […]. 21, 259-272 (1969)). In particular, inhibitory effects of the compounds on hydrolysis of N-acetylglycyl lysine methyl ester by urokinase were determined (incubated at 37° C. for 10 minutes).

[7] = biological target: chymotrypsin (Bos taurus, UniProt P00766); experiment: Inhibitory effects on chymotrypsin (hydrolysis of N-acetyl-L-tyrosine ethyl ester); format: biochemical; details: 0.05 mM; read-out: inhibited hydrolytic activity by chymotrypsin
Procedure: The compounds of the formula (I) have excellent inhibitory effects on protease. The inhibitory effects were determined by the following methods: Inhibitory effects on the compounds of chymotrypsin were determined according to the method described by M. […] In particular, inhibitory effects of the compounds on hydrolysis of N-acetyl-L-tyrosine ethyl ester by chymotrypsin were examined (incubated at 37° C. for 10 minutes).

SMILES: N=C(N)NC[C@H]1CC[C@H](C(=O)Oc2ccccc2C(=O)O)CC1 [Compound 10]
Ulcer Grade 1 (number of rats) ([1]; 300 mg/kg p.o. daily×10): 4
Ulcer Grade 2 (number of rats) ([1]; 300 mg/kg p.o. daily×10): 2
Ulcer Grade 3 (number of rats) ([1]; 300 mg/kg p.o. daily×10): 1
Ulcer Grade 4 (number of rats) ([1]; 300 mg/kg p.o. daily×10): 0
Ulcer Grade 5 (number of rats) ([1]; 300 mg/kg p.o. daily×10): 2
Ulcer Grade 1 (number of rats) ([1]; 500 mg/kg p.o. daily×10): 4
Ulcer Grade 2 (number of rats) ([1]; 500 mg/kg p.o. daily×10): 3
Ulcer Grade 3 (number of rats) ([1]; 500 mg/kg p.o. daily×10): 1
Ulcer Grade 4 (number of rats) ([1]; 500 mg/kg p.o. daily×10): 0
Ulcer Grade 5 (number of rats) ([1]; 500 mg/kg p.o. daily×10): 0

SMILES: CN1[C@@H]2CC[C@H]1C[C@@H](OC(=O)C(CO)c1ccccc1)C2 (stereo partly shown) [Compound B, atropine sulfate, reference compound]
Ulcer Grade 0 (number of rats) ([2]; 0=no lesion): 2
Ulcer Grade 1 (number of rats) ([2]; 1=hemorrhagic suffusion): 1
Ulcer Grade 2 (number of rats) ([2]; 2=1-5 small ulcers (<3 mm)): 0
Ulcer Grade 3 (number of rats) ([2]; 3=many small ulcers (more than 5) or 1 ulcer of marked size): 1
Ulcer Grade 4 (number of rats) ([2]; 4=many ulcers of marked size): 3
Ulcer Grade 5 (number of rats) ([2]; 5=perforated ulcer): 3
Titratable Pepsin Output ([3]; 3 hours): 3.3 ± 0.9 mg
Titratable Pepsin Output % change ([3]; 3 hours): 43.1%
Titratable Pepsin Output ([3]; 6 hours): 9.7 ± 1.6 mg
Titratable Pepsin Output % change ([3]; 6 hours): 55.3%
Titratable Pepsin Output ([3]; 12 hours): 34.2 ± 1.4 mg
Titratable Pepsin Output % change ([3]; 12 hours): 41.0%

SMILES: Cc1c(C)c2c(c(C)c1OC(=O)[C@H]1CC[C@H](CNC(=N)N)CC1)CCC(C)(CCCC(C)CCCC(C)CCCC(C)C)O2 (stereo partly shown) [Example 1]
inhibition at 100 µM [4]: ~50%
inhibition at 100 µM [5]: ~50%

SMILES: N=C(N)NC[C@H]1CC[C@H](C(=O)Oc2ccccc2C=O)CC1 [Example 19]
inhibition at 100 µM [6]: 56%

SMILES: COc1ccccc1OC(=O)[C@H]1CC[C@H](CNC(=N)N)CC1 [Example 20]
inhibition at 100 µM [6]: 50%

Second part, the compound after the results:

inhibition at 100 µM [6]: 52%
SMILES: COc1ccc(OC(=O)[C@H]2CC[C@H](CNC(=N)N)CC2)cc1 [Example 21]

inhibition at 50 µM [7]: 50%
SMILES: CC(=O)c1ccccc1OC(=O)[C@H]1CC[C@H](CNC(=N)N)CC1 [Example 23, 2'-Acetylphenyl trans-4-guanidomethycylohexanecarboxylate hydrochloride]
